The record followed here is PubChem BioAssay AID2060328 (Molecular Pharmacology Branch, DTP, NCI, 2025).

The subject of this experiment is MDA-MB-231 multicell spheroids, viability (%T/C). As to the kind of experiment: Anticancer human tumor MDA-MB-231 cell line growth inhibition [IpAb].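 As to all read-outs here: viability read after seven days of drug exposure.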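 As to viability, T/C: 100% = DMSO vehicle control viability.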 The settings on record: for viability, T/C: stronger effect = lower value. The procedure, abridged:
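Spheroids of 60% malignant cells, 25% HUVEC and 15% MSC were exposed to targeted agents combined with ipatasertib or abemaciclib. Doses started at or near clinical Cmax (10 microM when unknown) and fell in half-log steps.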

The structures appear in SMILES notation. Where “and” joins values, the source holds several entries; their conditions need not be identical. Identical values can stand only once.

On to `CC(C)n1nc(-c2ccc3oc(N)nc3c2)c2c(N)ncnc21` + CCN1CCN(Cc2ccc(Nc3ncc(F)c(-c4cc(F)c5nc(C)n(C(C)C)c5c4)n3)nc2)CC1, for which the IC50 (as a rule, the point on the concentration scale where inhibition reaches its midpoint) (curve of first compound, second compound 0.01 µM) came out at 7.66 nM; the half-maximal inhibitory concentration (IC50) (curve of first compound, second compound 0.0316 µM) worked out at 2.71 nM; the concentration for half-maximal inhibition (IC50) (curve of first compound, second compound 0.1 µM) stood at 0.66 nM; the IC50 (curve of first compound, second compound 0.316 µM) was under 0.316 nM; the IC50 (curve of first compound, second compound 1 µM) was under 0.316 nM. Also, the viability, T/C – broadly, the ratio of treated to control – runs as follows: (second compound 0.01 µM, first compound 0.000316 µM) 90.3%; (second compound 0.01 µM, first compound 0.001 µM) 85.6%; (second compound 0.01 µM, first compound 0.00316 µM) 65.5%; (second compound 0.01 µM, first compound 0.01 µM) 45.9%; (second compound 0.01 µM, first compound 0.0316 µM) 34.6%; (second compound 0.01 µM, first compound 0.1 µM) 32.3%. Moreover, the viability, T/C by setting is: (second compound 0.0316 µM, first compound 0.000316 µM) 73.7%; (second compound 0.0316 µM, first compound 0.001 µM) 64.5%; (second compound 0.0316 µM, first compound 0.00316 µM) 48.2%; (second compound 0.0316 µM, first compound 0.01 µM) 33.1%; (second compound 0.0316 µM, first compound 0.0316 µM) 28.8%; (second compound 0.0316 µM, first compound 0.1 µM) 26.8%. In addition, the viability, T/C is, setting by setting: (second compound 0.1 µM, first compound 0.000316 µM) 55.1%; (second compound 0.1 µM, first compound 0.001 µM) 47%; (second compound 0.1 µM, first compound 0.00316 µM) 37.4%; (second compound 0.1 µM, first compound 0.01 µM) 30.2%; (second compound 0.1 µM, first compound 0.0316 µM) 27.6%; (second compound 0.1 µM, first compound 0.1 µM) 27.6%. In addition, the viability, T/C runs as follows: (second compound 0.316 µM, first compound 0.000316 µM) 41.7%; (second compound 0.316 µM, first compound 0.001 µM) 38%; (second compound 0.316 µM, first compound 0.00316 µM) 31.4%; (second compound 0.316 µM, first compound 0.01 µM) 30.1%; (second compound 0.316 µM, first compound 0.0316 µM) 29.6%; (second compound 0.316 µM, first compound 0.1 µM) 29.3%. Also, the viability, T/C (second compound 1 µM, first compound 0.000316 µM) was 47.1%; the viability, T/C (second compound 1 µM, first compound 0.001 µM) was 45%; the viability, T/C (second compound 1 µM, first compound 0.00316 µM) is 39.8%; the viability, T/C (second compound 1 µM, first compound 0.01 µM) is 45.4%; the viability, T/C (second compound 1 µM, first compound 0.0316 µM) is 47.4%; the viability, T/C (second compound 1 µM, first compound 0.1 µM) was 49.8%.

Consider `Cn1cnc2c(F)c(Nc3ccc(Br)cc3Cl)c(C(=O)NOCCO)cc21`, for which the viability, T/C runs as follows: (compound 0.00949 µM) 75.6% and 63.3%; (compound 0.03 µM) 59.9% and 54.4%; (compound 0.0949 µM) 54.8% and 50.4%; (compound 0.3 µM) 52.9% and 41.3%; (compound 0.949 µM) 27.7% and 30.4%; (compound 3 µM) 14.4% and 19.2%. Further, the half-maximal inhibitory concentration (IC50) (curve of compound) was 186 nM and 72.9 nM.
